target: T1, GST-tagged-Wee1 kinase (Homo sapiens, UniProt P30291); experiment: Wee1 time-resolved fluorescence equilibrium binding assay (displacement of Oregon Green-labeled ATP-competitive kinase probe); settings: read-out: Wee-1 inhibition (Ki)
T1 construct: purchased Carnabio (Carna Biosciences) 05-177
Procedure, shortened: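 Ki values derive from competitive displacement, under equilibrium, of a fast-reversible ATP-site Oregon Green kinase probe from GST-tagged Wee1, detected by time-resolved fluorescence.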

T1 sequence (P30291 whole entry): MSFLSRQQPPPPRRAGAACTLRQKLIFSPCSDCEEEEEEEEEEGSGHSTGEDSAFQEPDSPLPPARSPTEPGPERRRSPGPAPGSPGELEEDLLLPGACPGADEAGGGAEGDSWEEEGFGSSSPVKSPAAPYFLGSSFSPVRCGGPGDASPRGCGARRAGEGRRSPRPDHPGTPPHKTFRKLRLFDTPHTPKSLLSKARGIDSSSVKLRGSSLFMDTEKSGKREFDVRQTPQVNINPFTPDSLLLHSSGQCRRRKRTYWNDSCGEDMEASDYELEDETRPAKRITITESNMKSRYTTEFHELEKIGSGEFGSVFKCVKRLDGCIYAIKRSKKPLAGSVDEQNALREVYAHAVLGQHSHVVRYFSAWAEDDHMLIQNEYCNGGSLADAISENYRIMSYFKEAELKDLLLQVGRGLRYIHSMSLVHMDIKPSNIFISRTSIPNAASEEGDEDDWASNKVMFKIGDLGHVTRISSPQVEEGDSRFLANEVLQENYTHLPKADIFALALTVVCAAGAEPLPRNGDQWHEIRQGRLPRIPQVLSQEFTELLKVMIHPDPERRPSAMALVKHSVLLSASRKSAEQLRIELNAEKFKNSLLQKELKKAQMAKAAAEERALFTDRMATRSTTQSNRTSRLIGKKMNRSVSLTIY

SMILES | Ki [nM]
O=c1c2cnc(Nc3ccc4c(c3)CC(N3CC[C@H](F)C3)C4)nc2n2ccnc2n1-c1c(F)cccc1Cl (stereo partly drawn) [Example 256, 6-(2-chloro-6-fluorophenyl)-2-({2-[(3S)-3-fluoropyrrolidin-1-yl]-2,3-dihydro-1H-inden-5-yl}amino)imidazo[1,2-a]pyrimido[5,4-e]pyrimidin-5(6H)-one] | < 10
O=c1c2cnc(Nc3ccc4c(c3)CC(NCCF)C4)nc2n2ccnc2n1-c1c(F)cccc1Cl (stereo not shown) [Example 257, 6-(2-chloro-6-fluorophenyl)-2-({2-[(2-fluoroethyl)amino]-2,3-dihydro-1H-inden-5-yl}amino)imidazo[1,2-a]pyrimido[5,4-e]pyrimidin-5(6H)-one] | < 10
CCCNC1Cc2ccc(Nc3ncc4c(=O)n(-c5c(F)cccc5Cl)c5nccn5c4n3)cc2C1 (stereo not shown) [Example 258, 6-(2-chloro-6-fluorophenyl)-2-{[2-(propylamino)-2,3-dihydro-1H-inden-5-yl]amino}imidazo[1,2-a]pyrimido[5,4-e]pyrimidin-5(6H)-one] | < 10
O=c1c2cnc(Nc3ccc4c(c3)CC(N3CCCC3)C4)nc2n2ccnc2n1-c1c(F)cccc1Cl (stereo not shown) [Example 259, 6-(2-chloro-6-fluorophenyl)-2-{[2-(pyrrolidin-1-yl)-2,3-dihydro-1H-inden-5-yl]amino}imidazo[1,2-a]pyrimido[5,4-e]pyrimidin-5(6H)-one] | < 10
CN(C)CCN1CCN(c2ccc(Nc3ncc4c(=O)n(-c5ccccc5Cl)c5nccn5c4n3)cc2)CC1 [Example 260, 6-(2-chlorophenyl)-2-[(4-{4-[2-(dimethylamino)ethyl]piperazin-1-yl}phenyl)amino]imidazo[1,2-a]pyrimido[5,4-e]pyrimidin-5(6H)-one] | < 10
CN(C)CCCN(C)c1ccc(Nc2ncc3c(=O)n(-c4ccccc4Cl)c4nccn4c3n2)cc1 [Example 261, 6-(2-chlorophenyl)-2-[(4-{[3-(dimethylamino)propyl](methyl)amino}phenyl)amino]imidazo[1,2-a]pyrimido[5,4-e]pyrimidin-5(6H)-one] | < 10
CCN(CCN(C)C)c1ccc(Nc2ncc3c(=O)n(-c4ccccc4Cl)c4nccn4c3n2)cc1 [Example 262, 6-(2-chlorophenyl)-2-[(4-{[2-(dimethylamino)ethyl](ethyl)amino}phenyl)amino]imidazo[1,2-a]pyrimido[5,4-e]pyrimidin-5(6H)-one] | < 10
CN(C)CCN(C)c1ccc(Nc2ncc3c(=O)n(-c4ccccc4Cl)c4nccn4c3n2)cc1 [Example 263, 6-(2-chlorophenyl)-2-[(4-{[2-(dimethylamino)ethyl](methyl)amino}phenyl)amino]imidazo[1,2-a]pyrimido[5,4-e]pyrimidin-5(6H)-one] | < 10
COC[C@@H]1CCCN1c1ccc(Nc2ncc3c(=O)n(-c4ccccc4Cl)c4nccn4c3n2)cc1 [Example 264, 6-(2-chlorophenyl)-2-({4-[(2S)-2-(methoxymethyl)pyrrolidin-1-yl]phenyl}amino)imidazo[1,2-a]pyrimido[5,4-e]pyrimidin-5(6H)-one] | 10 to 100
CC(C)C(=O)N1Cc2cc(Nc3ncc4c(=O)n(-c5c(F)cccc5Cl)c5nccn5c4n3)ccc2C2(CC2)C1 [Example 265, 6-(2-chloro-6-fluorophenyl)-2-{[2′-(2-methylpropanoyl)-2′,3′-dihydro-1′H-spiro[cyclopropane-1,4′-isoquinolin]-7′-yl]amino}imidazo[1,2-a]pyrimido[5,4-e]pyrimidin-5(6H)-one] | < 10
CC(C)(C)C(=O)N1Cc2cc(Nc3ncc4c(=O)n(-c5c(F)cccc5Cl)c5nccn5c4n3)ccc2C2(CC2)C1 [Example 266, 6-(2-chloro-6-fluorophenyl)-2-{[2′-(2,2-dimethylpropanoyl)-2′,3′-dihydro-1′H-spiro[cyclopropane-1,4′-isoquinolin]-7′-yl]amino}imidazo[1,2-a]pyrimido[5,4-e]pyrimidin-5(6H)-one] | < 10

Now from value to compound:

Ki [nM] | SMILES
< 10 | O=C(C1CCCC1)N1Cc2cc(Nc3ncc4c(=O)n(-c5c(F)cccc5Cl)c5nccn5c4n3)ccc2C2(CC2)C1 [Example 267, 6-(2-chloro-6-fluorophenyl)-2-{[2′-(cyclopentylcarbonyl)-2′,3′-dihydro-1′H-spiro[cyclopropane-1,4′-isoquinolin]-7′-yl]amino}imidazo[1,2-a]pyrimido[5,4-e]pyrimidin-5(6H)-one]
< 10 | O=c1c2cnc(Nc3ccc(NCCc4c[nH]cn4)cc3)nc2n2ccnc2n1-c1ccccc1Cl [Example 268, 6-(2-chlorophenyl)-2-[(4-{[2-(1H-imidazol-4-yl)ethyl]amino}phenyl)amino]imidazo[1,2-a]pyrimido[5,4-e]pyrimidin-5(6H)-one]
< 10 | O=c1c2cnc(Nc3ccc(NCCCn4ccnc4)cc3)nc2n2ccnc2n1-c1ccccc1Cl [Example 269, 6-(2-chlorophenyl)-2-[(4-{[3-(1H-imidazol-1-yl)propyl]amino}phenyl)amino]imidazo[1,2-a]pyrimido[5,4-e]pyrimidin-5(6H)-one]
< 10 | O=c1c2cnc(Nc3ccc(N4CCSCC4)cc3)nc2n2ccnc2n1-c1ccccc1Cl [Example 270, 6-(2-chlorophenyl)-2-{[4-(thiomorpholin-4-yl)phenyl]amino}imidazo[1,2-a]pyrimido[5,4-e]pyrimidin-5(6H)-one]
< 10 | CC(C)NCCN(c1ccc(Nc2ncc3c(=O)n(-c4ccccc4Cl)c4nccn4c3n2)cc1)C(C)C [Example 271, 6-(2-chlorophenyl)-2-[(4-{propan-2-yl[2-(propan-2-ylamino)ethyl]amino}phenyl)amino]imidazo[1,2-a]pyrimido[5,4-e]pyrimidin-5(6H)-one]
10 to 100 | NC(=O)C1CCCN(c2ccc(Nc3ncc4c(=O)n(-c5ccccc5Cl)c5nccn5c4n3)cc2)C1 (stereo not shown) [Example 272, 1-(4-{[6-(2-chlorophenyl)-5-oxo-5,6-dihydroimidazo[1,2-a]pyrimido[5,4-e]pyrimidin-2-yl]amino}phenyl)piperidine-3-carboxamide]
< 10 | CN1CCCC1CCNc1ccc(Nc2ncc3c(=O)n(-c4c(Cl)cccc4Cl)c4nccn4c3n2)cc1 (stereo not shown) [Example 273, 6-(2,6-dichlorophenyl)-2-[(4-{[2-(1-methylpyrrolidin-2-yl)ethyl]amino}phenyl)amino]imidazo[1,2-a]pyrimido[5,4-e]pyrimidin-5(6H)-one]
< 10 | CC(C)C(=O)N1Cc2cc(Nc3ncc4c(=O)n(-c5c(Cl)cccc5Cl)c5nccn5c4n3)ccc2C2(CC2)C1 [Example 274, 6-(2,6-dichlorophenyl)-2-{[2′-(2-methylpropanoyl)-2′,3′-dihydro-1′H-spiro[cyclopropane-1,4′-isoquinolin]-7′-yl]amino}imidazo[1,2-a]pyrimido[5,4-e]pyrimidin-5(6H)-one]
< 10 | O=C(C1CC1)N1Cc2cc(Nc3ncc4c(=O)n(-c5c(Cl)cccc5Cl)c5nccn5c4n3)ccc2C2(CC2)C1 [Example 275, 2-{[2′-(cyclopropylcarbonyl)-2′,3′-dihydro-1′H-spiro[cyclopropane-1,4′-isoquinolin]-7′-yl]amino}-6-(2,6-dichlorophenyl)imidazo[1,2-a]pyrimido[5,4-e]pyrimidin-5(6H)-one]
< 10 | CC(C)(C)C(=O)N1Cc2cc(Nc3ncc4c(=O)n(-c5c(Cl)cccc5Cl)c5nccn5c4n3)ccc2C2(CC2)C1 [Example 276, 6-(2,6-dichlorophenyl)-2-{[2′-(2,2-dimethylpropanoyl)-2′,3′-dihydro-1′H-spiro[cyclopropane-1,4′-isoquinolin]-7′-yl]amino}imidazo[1,2-a]pyrimido[5,4-e]pyrimidin-5(6H)-one]
10 to 100 | O=c1c2cnc(Nc3cnc4c(c3)CNCC4)nc2n2ccnc2n1-c1c(F)cccc1Cl [Example 277, 6-(2-chloro-6-fluorophenyl)-2-(5,6,7,8-tetrahydro-1,6-naphthyridin-3-ylamino)imidazo[1,2-a]pyrimido[5,4-e]pyrimidin-5(6H)-one]
< 10 | O=c1c2cnc(Nc3ccc4c(c3)CNCC43CC3)nc2n2ccnc2n1-c1cccc(O)c1Cl [Example 278, 6-(2-chloro-3-hydroxyphenyl)-2-(2′,3′-dihydro-1′H-spiro[cyclopropane-1,4′-isoquinolin]-7′-ylamino)imidazo[1,2-a]pyrimido[5,4-e]pyrimidin-5(6H)-one]
< 10 | Cc1cc(O)ccc1-n1c(=O)c2cnc(Nc3ccc4c(c3)CNCC43CC3)nc2n2ccnc12 [Example 279, 2-(2′,3′-dihydro-1′H-spiro[cyclopropane-1,4′-isoquinolin]-7′-ylamino)-6-(4-hydroxy-2-methylphenyl)imidazo[1,2-a]pyrimido[5,4-e]pyrimidin-5(6H)-one]
10 to 100 | CC1(C)CN(CC(F)F)Cc2cc(Nc3ncc4c(=O)n(-c5c(F)cccc5Cl)c5nccn5c4n3)ccc21 [Example 280, 6-(2-chloro-6-fluorophenyl)-2-{[2-(2,2-difluoroethyl)-4,4-dimethyl-1,2,3,4-tetrahydroisoquinolin-7-yl]amino}imidazo[1,2-a]pyrimido[5,4-e]pyrimidin-5(6H)-one]
< 10 | CC1(C)CN(CCF)Cc2cc(Nc3ncc4c(=O)n(-c5c(F)cccc5Cl)c5nccn5c4n3)ccc21 [Example 281, 6-(2-chloro-6-fluorophenyl)-2-{[2-(2-fluoroethyl)-4,4-dimethyl-1,2,3,4-tetrahydroisoquinolin-7-yl]amino}imidazo[1,2-a]pyrimido[5,4-e]pyrimidin-5(6H)-one]
< 10 | O=c1c2cnc(Nc3ccc(N4CCC(N5CCCCC5)CC4)cc3)nc2n2ccnc2n1-c1c(Cl)cccc1Cl [Example 282, 2-{[4-(1,4′-bipiperidin-1′-yl)phenyl]amino}-6-(2,6-dichlorophenyl)imidazo[1,2-a]pyrimido[5,4-e]pyrimidin-5(6H)-one]
< 10 | CN(C)[C@@H]1CCN(c2ccc(Nc3ncc4c(=O)n(-c5c(Cl)cccc5Cl)c5nccn5c4n3)cc2)C1 [Example 283, 6-(2,6-dichlorophenyl)-2-({4-[(3R)-3-(dimethylamino)pyrrolidin-1-yl]phenyl}amino)imidazo[1,2-a]pyrimido[5,4-e]pyrimidin-5(6H)-one]

Source: patent US8710065B2, “Tricyclic inhibitors of kinases” (AbbVie Inc., priority 2011, dated 2014)
